Reference: article PMC5865651, “Novel inhibitor candidates of TRPV2 prevent damage of dystrophic myocytes and ameliorate against dilated cardiomyopathy in a hamster model” (Oncotarget, 2018)
Like-named read-outs stand apart in the source and are kept apart here.

How the values were obtained:
[1] = biological target: T1, hTRPC1 (Homo sapiens, UniProt P48995); test: Store-operated Ca2+ entry after thapsigargin in hTRPC1-transfected HEK293 cells; format: cell-based
T1 construct: expressed in transfected cells; host or cells: HEK293 cells
T1 sequence (P48995 whole entry): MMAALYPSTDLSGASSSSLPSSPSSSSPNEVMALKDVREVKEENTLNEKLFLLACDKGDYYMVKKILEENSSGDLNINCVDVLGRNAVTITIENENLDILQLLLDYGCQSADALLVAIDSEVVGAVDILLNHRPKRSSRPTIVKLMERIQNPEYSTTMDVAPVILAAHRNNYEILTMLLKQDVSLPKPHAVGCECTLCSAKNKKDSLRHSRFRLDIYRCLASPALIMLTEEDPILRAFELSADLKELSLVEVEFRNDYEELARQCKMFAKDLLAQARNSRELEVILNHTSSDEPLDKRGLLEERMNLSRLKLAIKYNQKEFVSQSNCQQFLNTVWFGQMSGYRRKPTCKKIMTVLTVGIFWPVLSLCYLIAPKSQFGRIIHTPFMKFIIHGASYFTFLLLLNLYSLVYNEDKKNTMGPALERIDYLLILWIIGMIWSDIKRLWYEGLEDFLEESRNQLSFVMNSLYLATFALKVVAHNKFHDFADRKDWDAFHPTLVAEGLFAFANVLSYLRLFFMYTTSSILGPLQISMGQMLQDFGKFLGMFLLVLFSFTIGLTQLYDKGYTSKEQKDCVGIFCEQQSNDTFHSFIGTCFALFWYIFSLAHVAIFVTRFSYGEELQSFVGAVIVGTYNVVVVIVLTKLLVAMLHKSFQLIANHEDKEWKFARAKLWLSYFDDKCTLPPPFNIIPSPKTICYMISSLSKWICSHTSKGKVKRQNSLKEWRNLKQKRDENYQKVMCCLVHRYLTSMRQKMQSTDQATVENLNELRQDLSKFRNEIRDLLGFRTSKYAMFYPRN
Experimental: Figure 4 Effects of inhibitor compounds on the Ca^2+ response of cells expressing hTRPV1, hTRPV2, or hTRPC1 (A) Effect of compounds on CaCl2 (5 mM)-induced peak fluorescence ratio in non-transfected (nt) or hTRPV2-transfected CHO cells. The extracellular Ca^2+-dependent increase in the ratio of fura-2 fluorescence intensity at 340/380 nm (ΔR, 2 min after addition of chemicals) was plotted as ΔR/R0 after normalising to the initial fluorescence ratio (R0). […] Solid bar, no inhibitor. (B) Effect of compounds on 2-APB (1 mM)/high extracellular CaCl2-induced peak fluorescence ratio in nt or hTRPV1-transfected HEK293 cells. […] (C) Effect of compounds on store-operated Ca^2+ entry in nt or hTRPC1-transfected HEK293 cells. Cells were treated with the endoplasmic reticulum Ca^2+ pump inhibitor thapsigargin and exposed to CaCl2 and the indicated compounds. ΔR was measured 2 min after the addition of CaCl2. […] Data are shown as mean ± SD (n = 5).
[Ca^2+]i was measured by a ratiometric fluorescence method as previously described. […] Fura-2-AM fluorescence was measured using an Aquacosmos fluorescence image processor (Hamamatsu Photonics, Hamamatsu, Japan). The time-course data are presented as the ratio of fluorescence at an excitation wavelength of 340 nm to that at 380 nm. The increase in the fluorescence ratio induced by the TRPV2 agonist 2-APB or high extracellular Ca^2+ (ΔR) was normalized to the initial ratio (R0) before stimulation. The fluorescence relative ratio (ΔR/R0) was plotted as the summary data in the fluorescence imaging analysis.

[2] = tested on: cardiomyopathic J2N-k hamsters; test: Cardiomyopathy in J2N-k hamsters in vivo (echocardiography, serum cTN-I, Masson's trichrome fibrosis); set-up: species or system hamster; conditions: 3 weeks
Experimental: Male δ-SG-deficient cardiomyopathic J2N-k and age-matched wild-type J2N-n hamsters (9 weeks old) were purchased from Japan SLC, Inc. (Shizuoka, Japan). Tranilast was ingested mixed with feed (300 mg/kg/day) as described previously, whereas other drugs (Figure 1) were administered orally in the drinking water at doses of 30 mg/kg (except lumin) per day for 3 weeks. In case of lumin, we first performed dose-dependent experiment at dose of 1,10 and100 mg/kg per day for 3 weeks, in order to determine the effective dose. […] After drug treatment, serum cardiac troponin (cTN)-I was measured and echocardiography analysis was performed. Histochemistry of cardiac muscles was performed as previously described. All animal experiments were performed according to the Guidelines for Animal Experimentation of the National Cerebral and Cardiovascular Center Research Institute.
Ventricles were fixed in phosphate-buffered saline containing 10% formalin and embedded in paraffin. Serial sections were cut at a thickness of 5 μm and stained with Masson's trichrome stain for morphological analysis. Sections were viewed under a BX41 light microscope (Olympus, Tokyo, Japan). Images were acquired with an FX380 digital camera (Olympus) and analysed using an FLVFS-LS imaging system (Flovel, Tokyo, Japan).
Fibrosis was assessed by measuring Masson's trichrome-positive areas. Briefly, colour images were converted to binary form by setting the threshold value so as to detect only blue-stained fibrotic areas, which were summed and reported as a percentage of the total.
Cardiac function was evaluated by echocardiography using a Sonos5500 ultrasound system (Hewlett-Packard, Palo Alto, CA, USA) with a 12-MHz transducer and M-mode imaging. The animals were sedated with tribromoethanol (350 mg/kg by intraperitoneal injection) during the process.
Creatine phosphokinase (CK) activity in the medium was determined using an in vitro colorimetric assay kit (CK Test Kit; Wako Pure Chemical Industries, Ltd., Osaka, Japan) according to the manufacturer's protocol The cTN-I level in the serum was measured, while quantitative immunoblotting and immunocytochemistry were performed as previously described. Protein concentration was measured using the bicinchoninic acid assay (Pierce Chemical Co., Rockford, IL, USA) with bovine serum albumin as the standard. All histochemical and physiological analyses were performed by investigators blinded to the drug treatments. Unless otherwise stated, results are presented as the mean ± SD of at least 5 determinations. The unpaired Student's t-test and one-way ANOVA followed by Dunnett's test were used to analyse the data. Values of P < 0.05 (indicated as asterisks in the figures) were considered statistically significant. All cellular measurements were repeated at least 5 times. Representative data are shown.

[3] = 30 mg/kg per day orally in drinking water
[4] = hTRPC1-transfected HEK293 cells, thapsigargin, compound 15 μM

effect on store-operated increase in [Ca2+]i [1] | increase in [Ca2+]i via TRPC1 ([1]; unpublished observation, concentration not given) | Compound | effect on fibrosis (Masson's trichrome) [2, 3] | effect on fractional shortening (FS) [2, 3] | effect on left ventricular end-diastolic dimension (LVDd) [2, 3] | effect on left ventricular end-systolic dimension (LVDs) [2, 3] | effect on serum level of cTN-I [2, 3] | effect on store-operated increase in [Ca2+]i [1, 4] | effect on cardiac dysfunction (increased LVDs, reduced ejection fraction, decreased fractional shortening) ([2]; 10 mg/kg per day orally) | effect on fibrotic area ([2]; 10 mg/kg per day orally) | effect on the decrease in wall thickness ([2]; 10 mg/kg per day orally)
inhibited | – | NCCOB(c1ccccc1)c1ccccc1 [2-APB, 2-aminoethoxydiphenylborate] | – | – | – | – | – | – | – | – | –
– | – | COc1cc(/C=C(\C#N)C(=O)Nc2ccccc2C(=O)O)cc(Cl)c1OC [A3, 2-[(2E)-3-(3-Chloro-4,5-dimethoxyphenyl)-2-cyanoprop-2-enoylamino]benzoic acid] | prevented fibrosis | prevented | small effect | prevented the increase | reduced | neither A3, A48, A63, nor B6 had any effect | – | – | –
– | – | COc1cccc(OCCn2cc(/C=N/n3cnnc3)c3ccccc32)c1 [B6, 1-{2-[3-((1E)-2-(1,2,4-triazol-4-yl)-2-azavinyl)indolyl]ethoxy}-3-methoxybenzene] | – | prevented | small effect | prevented the increase | reduced | neither A3, A48, A63, nor B6 had any effect | – | – | –
– | did not affect | CCN1C=CC(=CC=C(C=Cc2cc[n+](CC)c3ccccc23)c2cc[n+](CC)c3ccccc23)c2ccccc21.[I-].[I-] [lumin, 4,4′-[3-[2-[1-ethyl-4(1H)-quinolinylidene]ethylidene]-1-propene-1,3-diyl]bis(1-ethylquinolinium) diiodide] | – | – | – | – | – | – | prevented | reduced | partially prevented
